Two compounds from ChEMBL document CHEMBL5331077, “Combining pharmacophore models derived from DNA-encoded chemical libraries with structure-based exploration to predict Tankyrase 1 inhibitors” (Eur J Med Chem, 2023) can be followed below.

The structures appear in SMILES notation. Activity calls are given as the source filed them. No cut-off for these calls is given here.

The target in test [1] is T1, Protein mono-ADP-ribosyltransferase PARP11 (Homo sapiens) (UniProt Q9NR21).
T1 sequence (whole entry): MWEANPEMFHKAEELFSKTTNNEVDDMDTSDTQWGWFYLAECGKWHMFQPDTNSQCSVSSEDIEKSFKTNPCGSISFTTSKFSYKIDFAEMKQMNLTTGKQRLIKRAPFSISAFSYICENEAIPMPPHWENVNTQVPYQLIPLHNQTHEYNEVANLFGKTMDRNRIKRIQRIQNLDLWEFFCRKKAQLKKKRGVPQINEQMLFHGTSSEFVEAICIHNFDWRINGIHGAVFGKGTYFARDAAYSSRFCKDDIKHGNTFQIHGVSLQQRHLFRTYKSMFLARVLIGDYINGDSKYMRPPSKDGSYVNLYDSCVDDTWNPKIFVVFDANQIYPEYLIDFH
Description: Inhibition of PARP11 (unknown origin).

Test [2] has as its target T2, Protein mono-ADP-ribosyltransferase PARP3 (Homo sapiens) (UniProt Q9Y6F1).
T2 sequence (whole entry): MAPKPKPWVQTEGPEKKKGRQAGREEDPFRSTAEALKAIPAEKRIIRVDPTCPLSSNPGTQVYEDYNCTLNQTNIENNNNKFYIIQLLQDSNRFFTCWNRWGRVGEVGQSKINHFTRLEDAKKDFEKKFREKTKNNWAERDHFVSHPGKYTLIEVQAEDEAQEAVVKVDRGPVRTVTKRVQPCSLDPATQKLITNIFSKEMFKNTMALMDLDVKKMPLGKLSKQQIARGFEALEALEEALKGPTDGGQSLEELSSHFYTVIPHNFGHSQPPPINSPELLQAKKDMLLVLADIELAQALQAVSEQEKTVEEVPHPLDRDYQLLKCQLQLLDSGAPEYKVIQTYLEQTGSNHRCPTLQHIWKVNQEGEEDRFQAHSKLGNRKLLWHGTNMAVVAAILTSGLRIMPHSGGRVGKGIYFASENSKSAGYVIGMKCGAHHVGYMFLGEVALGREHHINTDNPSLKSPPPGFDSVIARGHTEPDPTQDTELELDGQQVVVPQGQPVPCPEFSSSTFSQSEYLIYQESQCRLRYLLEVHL
Description: Inhibition of PARP3 (unknown origin).

Test [3] deals with T3, Protein mono-ADP-ribosyltransferase PARP15 (Homo sapiens) (UniProt Q460N3).
T3 sequence (whole entry): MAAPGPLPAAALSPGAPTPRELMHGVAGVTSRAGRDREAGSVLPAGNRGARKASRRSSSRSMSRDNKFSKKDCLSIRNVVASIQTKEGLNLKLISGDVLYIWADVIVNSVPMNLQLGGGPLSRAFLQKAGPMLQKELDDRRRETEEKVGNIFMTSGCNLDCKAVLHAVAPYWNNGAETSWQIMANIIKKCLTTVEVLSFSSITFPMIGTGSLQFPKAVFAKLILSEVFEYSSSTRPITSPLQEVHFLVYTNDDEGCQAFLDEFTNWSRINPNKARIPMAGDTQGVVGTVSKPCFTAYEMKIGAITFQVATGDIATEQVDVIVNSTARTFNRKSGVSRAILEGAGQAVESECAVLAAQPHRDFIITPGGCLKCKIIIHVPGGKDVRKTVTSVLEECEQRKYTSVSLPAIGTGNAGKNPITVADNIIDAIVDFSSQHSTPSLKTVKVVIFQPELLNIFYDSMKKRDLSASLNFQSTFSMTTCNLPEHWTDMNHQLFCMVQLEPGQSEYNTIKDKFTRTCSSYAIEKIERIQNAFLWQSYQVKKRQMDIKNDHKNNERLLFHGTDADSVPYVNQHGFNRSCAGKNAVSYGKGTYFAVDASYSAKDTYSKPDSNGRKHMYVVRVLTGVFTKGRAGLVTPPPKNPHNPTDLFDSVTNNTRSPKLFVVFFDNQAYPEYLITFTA
Description: Inhibition of PARP15 (unknown origin).

Test [4] concerns the target Protein mono-ADP-ribosyltransferase PARP6 (Homo sapiens) (UniProt Q2NL67). The test can be described thus: Inhibition of PARP6 (unknown origin).
Test [5] concerns the target T4, Protein mono-ADP-ribosyltransferase TIPARP (Homo sapiens) (UniProt Q7Z3E1).
T4 sequence (whole entry): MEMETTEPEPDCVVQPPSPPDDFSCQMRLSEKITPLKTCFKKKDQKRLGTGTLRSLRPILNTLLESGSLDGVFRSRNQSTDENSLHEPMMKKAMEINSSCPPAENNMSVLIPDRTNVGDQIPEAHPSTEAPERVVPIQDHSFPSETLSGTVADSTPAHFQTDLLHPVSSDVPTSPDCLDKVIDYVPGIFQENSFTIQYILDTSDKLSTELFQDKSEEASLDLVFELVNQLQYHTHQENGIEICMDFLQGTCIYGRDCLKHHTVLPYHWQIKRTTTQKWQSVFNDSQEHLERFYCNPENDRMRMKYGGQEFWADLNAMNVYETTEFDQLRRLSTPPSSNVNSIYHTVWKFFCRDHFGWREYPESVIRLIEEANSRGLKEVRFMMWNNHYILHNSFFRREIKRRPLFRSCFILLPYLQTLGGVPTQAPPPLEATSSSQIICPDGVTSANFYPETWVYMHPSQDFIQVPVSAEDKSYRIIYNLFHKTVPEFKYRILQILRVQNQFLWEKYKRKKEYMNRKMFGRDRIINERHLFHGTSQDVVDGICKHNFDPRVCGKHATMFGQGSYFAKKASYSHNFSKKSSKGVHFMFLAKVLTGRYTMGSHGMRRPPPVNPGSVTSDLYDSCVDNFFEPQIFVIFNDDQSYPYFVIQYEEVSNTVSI
The test can be described thus: Inhibition of PARP7 (unknown origin).

Chain of Protein mono-ADP-ribosyltransferase PARP6 (Homo sapiens) (Q2NL67 whole entry): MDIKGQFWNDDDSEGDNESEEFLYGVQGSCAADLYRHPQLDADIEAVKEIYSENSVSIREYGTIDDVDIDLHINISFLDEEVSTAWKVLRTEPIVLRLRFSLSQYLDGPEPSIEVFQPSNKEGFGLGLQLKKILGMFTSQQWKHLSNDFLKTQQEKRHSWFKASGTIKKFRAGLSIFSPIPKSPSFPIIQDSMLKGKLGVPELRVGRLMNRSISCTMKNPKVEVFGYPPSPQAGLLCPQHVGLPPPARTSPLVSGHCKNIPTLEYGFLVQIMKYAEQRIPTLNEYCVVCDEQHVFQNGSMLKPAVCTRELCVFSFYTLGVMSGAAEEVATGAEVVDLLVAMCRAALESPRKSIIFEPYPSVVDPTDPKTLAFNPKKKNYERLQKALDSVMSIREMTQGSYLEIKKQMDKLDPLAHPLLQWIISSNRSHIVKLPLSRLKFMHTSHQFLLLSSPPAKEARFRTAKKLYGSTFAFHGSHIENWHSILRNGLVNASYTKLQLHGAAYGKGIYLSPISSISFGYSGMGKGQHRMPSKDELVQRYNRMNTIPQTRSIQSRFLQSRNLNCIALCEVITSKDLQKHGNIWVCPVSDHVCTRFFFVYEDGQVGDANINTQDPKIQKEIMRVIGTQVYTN

For `Cc1cc(OCC(=O)NCCNC(=O)c2cccc(COc3ccccc3C(N)=O)c2)c2c3c(c(=O)oc2c1)CCC3`, the inhibition entry in test [1], in test [2], in test [4] and in test [5] was “inactive” in each case. For the same compound, the inhibition result in test [3] was “Active”.

Consider `CNC(=O)[C@H](CNC(=O)CCn1c(=O)[nH]c(=O)c2ccccc21)NC(=O)c1cnc2ccccc2c1`, for which the inhibition result in test [1], in test [2], in test [3], in test [4] and in test [5] was “inactive” each time.
